From US20130302442A1, “METHODS OF USING (4S,4AS,5AR,12AS)-4-DIMETHYLAMINO-3,10,12,12A-TETRAHYDROXY-7-[(METHOXY(METHYL)AMINO)-METHYL]-1,11-DIOXO-1,4,4A,5,5A,6,11,12A-OCTAHYDRO-NAPHTHACENE-2-CARBOXYLIC ACID AMIDE” (priority 2012, published 2013)
Values after ≈ are worked out from the molar mass of the structure shown. Like-named read-outs stand apart in the source and are kept apart here.

Tests used:
Format in all cases: cell-based
P. avidum = assay: In vitro MIC testing, antibacterial spectrum of activity; settings: P. avidum [clinical isolates] (4 isolates)
S. agalactiae = assay: as above
Clostridium difficile = assay: In vitro MIC testing against anaerobic bacteria
S. pyogenes = assay: In vitro MIC testing, antibacterial spectrum of activity
E. faecium = assay: as above; settings: for MIC / MIC50 / MIC90: Enterococcus faecium; for MIC50: read-out: MIC50; for MIC90: read-out: MIC90
[1] = test system: Lactobacillus acidophilus; assay: In vitro MIC testing against anaerobic bacteria; settings: Lactobacillus acidophilus 0681
Bacteroides fragilis = assay: In vitro MIC testing against anaerobic bacteria
[2] = test system: Peptostreptococcus anaerobius; assay: In vitro MIC testing against anaerobic bacteria
Clostridium perfringens = assay: microbe, parasite or virus in culture
Bifidobacterium brevi = assay: In vitro MIC testing against anaerobic bacteria; settings: ATCC15698; Bifidobacterium brevi 3967, ATCC 15698
P. mirabilis = assay: In vitro MIC testing, antibacterial spectrum of activity; settings: Proteus mirabilis; P. mirabilis (30 isolates)
P. aeruginosa = assay: as above; settings: Pseudomonas aeruginosa; P. aeruginosa (11 isolates)
[3] = test system: Streptococcus intermedius; assay: In vitro MIC testing against anaerobic bacteria; settings: ATCC27335; Streptococcus intermedius 1203, ATCC 27335
S. haemolyticus = assay: In vitro MIC testing, antibacterial spectrum of activity; settings: S. haemolyticus (33 isolates)
P. granulosum = assay: as above; settings: P. granulosum [clinical isolates] (3 isolates)
[4] = test system: Peptostreptococcus micros; assay: In vitro MIC testing against anaerobic bacteria; settings: Parvimonas micra, read-out: MIC
Bifidobacterium bifidum = assay: In vitro MIC testing against anaerobic bacteria; settings: ATCC15696; Bifidobacterium bifidum 3965, ATCC 15696
[5] = test system: Streptococcus spp. [Group C]; assay: In vitro MIC testing, antibacterial spectrum of activity; settings: Streptococcus spp. [Group C] (30 isolates); read-out: MIC50
Bifidobacterium infantis = assay: In vitro MIC testing against anaerobic bacteria; settings: ATCC15702; Bifidobacterium infantis 3966, ATCC 15702
Fusobacterium nucleatum = assay: In vitro MIC testing against anaerobic bacteria; settings: ATCC25586; Fusobacterium nucleatum 3962, ATCC 25586; read-out: MIC
[6] = test system: Fusobacterium necrophorum; assay: In vitro MIC testing against anaerobic bacteria; settings: ATCC25286; Fusobacterium necrophorum 3963, ATCC 25286; read-out: MIC
Bacteroides ovatus = assay: In vitro MIC testing against anaerobic bacteria
Eikenella corrodens = assay: In vitro MIC testing against anaerobic bacteria; settings: Eikenella corrodens, ATCC43278
K. pneumoniae = assay: In vitro MIC testing, antibacterial spectrum of activity; settings: Klebsiella pneumoniae
Bifidobacterium longum = assay: In vitro MIC testing against anaerobic bacteria; settings: ATCC15707; Bifidobacterium longum 3968, ATCC 15707
Veillonella parvula = assay: In vitro MIC testing against anaerobic bacteria; settings: ATCC17745; Veillonella parvula 1272, ATCC 17745
E. coli = assay: In vitro MIC testing, antibacterial spectrum of activity; settings: E. coli [tetS] (7 isolates)
Propionibacterium acnes = assay: In vitro MIC testing against anaerobic bacteria; settings: Cutibacterium acnes, read-out: MIC
[7] = test system: Bacteroides thetaiotaomicron; assay: In vitro MIC testing against anaerobic bacteria
[8] = test system: Porphyromonas asaccharolytica; assay: In vitro MIC testing against anaerobic bacteria
E. faecalis = assay: In vitro MIC testing, antibacterial spectrum of activity
Lactobacillus casei = assay: In vitro MIC testing against anaerobic bacteria; settings: Lacticaseibacillus casei, ATCC393; Lactobacillus casei 1722, ATCC 393

CN(C)c1ccc(O)c2c1C[C@H]1C[C@H]3[C@H](N(C)C)C(O)=C(C(N)=O)C(=O)[C@@]3(O)C(O)=C1C2=O [Minocycline, minocycline]
MIC Range (P. avidum): 0.25 to 2 mg/L
MIC Range (S. agalactiae; S. agalactiae [tetS] (3 isolates)): 0.5-0.5 μg/mL
MIC50 (S. agalactiae; Streptococcus agalactiae, S. agalactiae (31 isolates), read-out: MIC50): 16 mg/L (≈ 35 µM)
MIC90 (S. agalactiae; Streptococcus agalactiae, S. agalactiae (31 isolates), read-out: MIC90): 16 mg/L (≈ 35 µM)
MIC (Clostridium difficile; Clostridioides difficile): 0.03 mg/L (≈ 0.0656 µM)
MIC (Clostridium difficile; Clostridium difficile 3584): 0.03 mg/L (≈ 0.0656 µM)
MIC Range (S. pyogenes; S. pyogenes [tetS] (5 isolates)): 0.25 to 0.5 mg/L
MIC (S. pyogenes; Streptococcus pyogenes, S. pyogenes strain PBS # 330, tetO): 8 mg/L (≈ 17.5 µM)
MIC50 (S. pyogenes; Streptococcus pyogenes, S. pyogenes (32 isolates), read-out: MIC50): 0.06 mg/L (≈ 0.131 µM)
MIC Range (E. faecium; E. faecium [tetR] (6 isolates)): 2 to 32 mg/L
MIC Range (E. faecium; E. faecium [tetS] (4 isolates)): 0.25 to 0.5 mg/L
MIC (E. faecium; E. faecium strain PBS # 965, tetM): 8 mg/L (≈ 17.5 µM)
MIC (E. faecium; E. faecium strain PBS # 1323, tetK): 2 mg/L (≈ 4.37 µM)
MIC (E. faecium; E. faecium strain PBS # 1324, tetO): 2 mg/L (≈ 4.37 µM)
MIC50 (E. faecium; E. faecium [VRE] (30 isolates)): 0.25 mg/L (≈ 0.546 µM)
MIC90 (E. faecium; E. faecium [VRE] (30 isolates)): 16 mg/L (≈ 35 µM)
MIC50 (E. faecium; E. faecium [VSE] (32 isolates)): 0.12 mg/L (≈ 0.262 µM)
MIC90 (E. faecium; E. faecium [VSE] (32 isolates)): 16 mg/L (≈ 35 µM)
MIC [1]: 0.5 mg/L (≈ 1.09 µM)
MIC (Bacteroides fragilis; Bacteroides fragilis 3374, read-out: MIC): 0.03 mg/L (≈ 0.0656 µM)
MIC (Bacteroides fragilis; Bacteroides fragilis 3479, read-out: MIC): 8 mg/L (≈ 17.5 µM)
MIC ([2]; Peptostreptococcus anaerobius 3526): 1 mg/L (≈ 2.19 µM)
MIC ([2]; Peptostreptococcus anaerobius 3531): 2 mg/L (≈ 4.37 µM)
MIC (Clostridium perfringens): 8 mg/L (≈ 17.5 µM)
MIC (Bifidobacterium brevi): 0.25 mg/L (≈ 0.546 µM)
MIC50 (P. mirabilis): 16 mg/L (≈ 35 µM)
MIC90 (P. mirabilis): > 32 mg/L
MIC50 (P. aeruginosa): > 32 mg/L
MIC90 (P. aeruginosa): > 32 mg/L
MIC [3]: 0.25 mg/L (≈ 0.546 µM)
MIC Range (S. haemolyticus): ≦0.03-0.5 μg/mL
MIC50 (S. haemolyticus; Staphylococcus haemolyticus, read-out: MIC50): 0.06 mg/L (≈ 0.131 µM)
MIC90 (S. haemolyticus; Staphylococcus haemolyticus, read-out: MIC90): 0.5 mg/L (≈ 1.09 µM)
MIC Range (P. granulosum): 0.25 to 0.5 mg/L
MIC ([4]; Peptostreptococcus micros 3432): 0.06 mg/L (≈ 0.131 µM)
MIC ([4]; Peptostreptococcus micros 3545): 0.25 mg/L (≈ 0.546 µM)
MIC (Bifidobacterium bifidum): 0.25 mg/L (≈ 0.546 µM)
MIC50 [5]: 0.06 mg/L (≈ 0.131 µM)
MIC (Bifidobacterium infantis): 0.25 mg/L (≈ 0.546 µM)
MIC (Fusobacterium nucleatum): 0.06 mg/L (≈ 0.131 µM)
MIC [6]: 0.06 mg/L (≈ 0.131 µM)
MIC (Bacteroides ovatus; Bacteroides ovatus 3503, read-out: MIC): 4 mg/L (≈ 8.74 µM)
MIC (Bacteroides ovatus; Bacteroides ovatus 3508, read-out: MIC): 0.03 mg/L (≈ 0.0656 µM)
MIC (Eikenella corrodens): 0.03 mg/L (≈ 0.0656 µM)
MIC50 (K. pneumoniae; K. pneumoniae (31 isolates)): 4 mg/L (≈ 8.74 µM)
MIC90 (K. pneumoniae; K. pneumoniae (31 isolates)): > 32 mg/L
MIC (K. pneumoniae; K. pneumoniae strain PBS # 266, tetD): 64 mg/L (≈ 140 µM)
MIC (Bifidobacterium longum): 1 mg/L (≈ 2.19 µM)
MIC (Veillonella parvula): 0.5 mg/L (≈ 1.09 µM)
MIC Range (E. coli): 0.5 to 4 mg/L
MIC (Propionibacterium acnes; ATCC11829, Propionibacterium acnes 1286, ATCC 11829): 0.5 mg/L (≈ 1.09 µM)
MIC (Propionibacterium acnes; Propionibacterium acnes 1713): 0.06 mg/L (≈ 0.131 µM)
MIC ([7]; Bacteroides thetaiotaomicron 3399): 0.03 mg/L (≈ 0.0656 µM)
MIC ([7]; Bacteroides thetaiotaomicron 3496): 8 mg/L (≈ 17.5 µM)
MIC ([8]; Porphyromonas asaccharolytica 3552, read-out: MIC): 8 mg/L (≈ 17.5 µM)
MIC ([8]; Porphyromonas asaccharolytica 3557, read-out: MIC): 4 mg/L (≈ 8.74 µM)
MIC Range (E. faecalis; E. faecalis [tetS] (4 isolates)): 0.25 to 0.5 mg/L
MIC50 (E. faecalis; Enterococcus faecalis, E. faecalis [VSE] (31 isolates), read-out: MIC50): 8 mg/L (≈ 17.5 µM)
MIC90 (E. faecalis; Enterococcus faecalis, E. faecalis [VSE] (31 isolates), read-out: MIC90): 16 mg/L (≈ 35 µM)
MIC (Lactobacillus casei): 0.5 mg/L (≈ 1.09 µM)
